# Source: patent US10576062B2, “Carbamoyloxymethyl triazole cyclohexyl acids as LPA antagonists” (Bristol-Myers Squibb Company, priority 2016, dated 2020)
# Target: T1, human LPA1 (Homo sapiens, UniProt Q92633)
# T1 construct: expressed in transfected cells; host or cells: Chinese hamster ovary (CHO) cells
# Assay: LPA1 functional antagonist assay (LPA-induced calcium flux)
# Format: cell-based
# Settings: CHO cells overexpressing human LPA1; inhibition of calcium flux induced by 10 nM LPA; read-out: hLPA1 IC50
# Method: The effectiveness of compounds of the present invention as LPA1 inhibitors can be determined in an LPA1 functional antagonist assay as follows: Chinese hamster ovary cells overexpressing human LPA1 were plated overnight (15,000 cells/well) in poly-D-lysine coated 384-well microplates (Greiner bio-one, Cat #781946) in DMEM/F12 medium (Gibco, Cat #11039). Following overnight culture, cells were loaded with calcium indicator dye (AAT Bioquest Inc, Cat #34601) for 30 minutes at 37° C. The cells were then equilibrated to room temperature for 30 minutes before the assay. Test compounds solubilized in DMSO were transferred to 384 well non-binding surface plates (Corning, Cat #3575) using the Labcyte Echo acoustic dispense and diluted with assay buffer [1×HBSS with calcium/magnesium (Gibco Cat #14025-092), 20 mM HEPES (Gibco Cat #15630-080) and 0.1% fatty acid free BSA (Sigma Cat #A9205)] to a final concentration of 0.5% DMSO. Diluted compounds were added to the cells by FDSS6000 (Hamamatsu) at final concentrations ranging from 0.08 nM to 5 μM. and were then incubated for 20 min at room temperature at which time LPA (Avanti Polar Lipids Cat #857130C) was added at final concentrations of 10 nM to stimulate the cells. […] IC50 values were determined by fitting data to a 4-parameter logistic equation (GraphPad Prism, San Diego Calif.).
# T1 sequence (Q92633 whole entry): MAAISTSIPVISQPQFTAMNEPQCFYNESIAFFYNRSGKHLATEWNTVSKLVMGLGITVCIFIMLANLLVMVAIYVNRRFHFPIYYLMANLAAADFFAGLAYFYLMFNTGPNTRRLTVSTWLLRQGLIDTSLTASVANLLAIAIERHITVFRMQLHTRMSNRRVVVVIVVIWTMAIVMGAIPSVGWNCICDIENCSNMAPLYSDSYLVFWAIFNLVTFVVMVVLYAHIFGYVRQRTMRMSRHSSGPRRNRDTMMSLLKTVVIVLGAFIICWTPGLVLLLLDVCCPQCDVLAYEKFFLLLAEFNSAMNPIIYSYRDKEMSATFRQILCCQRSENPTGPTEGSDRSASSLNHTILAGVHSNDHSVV
row,Compound,IC50
1,"CC(OC(=O)N(C)CC1CCC1)c1c(-c2ccc(O[C@H]3CCC[C@H](C(=O)O)C3)cc2)nnn1C (mixture of isomers) [Example 12, (1S,3S)-3-(4-(5-(1-(((cyclobutylmethyl)(methyl)carbamoyl)oxy)ethyl)-1-methyl-1H-1,2,3-triazol-4-yl)phenoxy)cyclohexane-1-carboxylic Acid]",384 nM

# Same assay, conditions: read-out: hLPA1 IC50
row,Compound,IC50
1,"Cc1nc(-c2nnn(C)c2COC(=O)N(C)C(C)C2CCC2)ccc1O[C@H]1CCC[C@H](C(=O)O)C1 (mixture of isomers) [Example 20, (1S,3S)-3-((6-(5-((((1-cyclobutylethyl)(methyl)carbamoyl)oxy)methyl)-1-methyl-1H-1,2,3-triazol-4-yl)-2-methylpyridin-3-yl)oxy)cyclohexane-1-carboxylic acid]",28 nM
2,"CCCC(C)N(C)C(=O)OCc1c(-c2ccc(O[C@H]3CCC[C@H](C(=O)O)C3)cn2)nnn1C (mixture of isomers) [Example 24, (1S,3S)-3-((6-(1-methyl-5-(((methyl(pentan-2-yl)carbamoyl)oxy)methyl)-1H-1,2,3-triazol-4-yl)pyridin-3-yl)oxy)cyclohexane-1-carboxylic acid]",47 nM
3,"CCCC(C)N(C)C(=O)OCc1c(-c2ccc(O[C@H]3CCC[C@H](C(=O)O)C3)c(F)c2)nnn1C (mixture of isomers) [Example 28, (1S,3S)-3-(2-fluoro-4-(1-methyl-5-(((methyl(pentan-2-yl)carbamoyl)oxy)methyl)-1H-1,2,3-triazol-4-yl)phenoxy)cyclohexane-1-carboxylic acid]",25 nM
4,"CCCC(C)N(C)C(=O)OCc1c(-c2ccc(O[C@H]3CCC[C@H](C(=O)O)C3)c(C)n2)nnn1C (mixture of isomers) [Example 31, (1S,3S)-3-((2-methyl-6-(1-methyl-5-(((methyl(pentan-2-yl)carbamoyl)oxy)methyl)-1H-1,2,3-triazol-4-yl)pyridin-3-yl)oxy)cyclohexane-1-carboxylic acid]",36 nM
5,"CCCC(C)N(C)C(=O)OCc1c(-c2ccc(O[C@H]3CCC[C@H](C(=O)O)C3)c(C)c2)nnn1C (mixture of isomers) [Example 39, (1S,3S)-3-(2-methyl-4-(1-methyl-5-(((methyl(pentan-2-yl)carbamoyl)oxy)methyl)-1H-1,2,3-triazol-4-yl)phenoxy)cyclohexane-1-carboxylic acid]",23 nM
6,"CC(C1CC1)N(C)C(=O)OCc1c(-c2ccc(O[C@H]3CCC[C@H](C(=O)O)C3)c(F)c2)nnn1C (mixture of isomers) [Example 45, (1S,3S)-3-(4-(5-((((1-cyclopropylethyl)(methyl)carbamoyl)oxy)methyl)-1-methyl-1H-1,2,3-triazol-4-yl)-2-fluorophenoxy)cyclohexane-1-carboxylic acid]",20 nM
7,"CC(C1CCC1)N(C)C(=O)OCc1c(-c2ccc(O[C@H]3CCC[C@H](C(=O)O)C3)cc2)nnn1C (mixture of isomers) [Example 54, (1S,3S)-3-(4-(5-((((1-cyclobutylethyl)(methyl)carbamoyl)oxy)methyl)-1-methyl-1H-1,2,3-triazol-4-yl)phenoxy)cyclohexane-1-carboxylic acid]",19 nM
8,"CCCC(C)N(C)C(=O)OCc1c(-c2ccc(O[C@H]3CCC[C@H](C(=O)O)C3)cc2)nnn1C (mixture of isomers) [Example 57, trans-3-(4-(1-methyl-5-(((methyl(pentan-2-yl)carbamoyl)oxy)methyl)-1H-1,2,3-triazol-4-yl)phenoxy)cyclohexane-1-carboxylic acid]",142 nM
9,"CC(C1CC1)N(C)C(=O)OCc1c(-c2ccc(O[C@H]3CCC[C@H](C(=O)O)C3)cc2)nnn1C (mixture of isomers) [Example 65, trans-3-(4-(5-((((1-cyclopropylethyl)(methyl)carbamoyl)oxy)methyl)-1-methyl-1H-1,2,3-triazol-4-yl)phenoxy)cyclohexane-1-carboxylic acid]",80 nM
10,"CCC(C)N(C)C(=O)OCc1c(-c2ccc(O[C@H]3CCC[C@H](C(=O)O)C3)cc2)nnn1C (mixture of isomers) [Example 68, (trans)-3-(4-(5-(((sec-butyl(methyl)carbamoyl)oxy)methyl)-1-methyl-1H-1,2,3-triazol-4-yl)phenoxy)cyclohexane-1-carboxylic acid]",320 nM
11,"CCC(C1CCC1)N(C)C(=O)OCc1c(-c2ccc(O[C@H]3CCC[C@H](C(=O)O)C3)c(C)n2)nnn1C (mixture of isomers) [Example 99, (1S,3S)-3-((6-(5-((((1-cyclobutylpropyl)(methyl)carbamoyl)oxy)methyl)-1-methyl-1H-1,2,3-triazol-4-yl)-2-methylpyridin-3-yl)oxy)cyclohexane-1-carboxylic acid]",144 nM
12,"Cc1nc(-c2nnn(C)c2COC(=O)N2CCC(C)C2)ccc1O[C@H]1CCC[C@H](C(=O)O)C1 (mixture of isomers) [Example 147, (1S,3S)-3-((2-methyl-6-(1-methyl-5-(((3-methylpyrrolidine-1-carbonyl)oxy)methyl)-1H-1,2,3-triazol-4-yl)pyridin-3-yl)oxy)cyclohexane-1-carboxylic acid]",250 nM
13,"Cc1nc(-c2nnn(C)c2COC(=O)N2CCC(CC3CC3)C2)ccc1O[C@H]1CCC[C@H](C(=O)O)C1 (mixture of isomers) [Example 150, (1S,3S)-3-((6-(5-(((3-(cyclopropylmethyl)pyrrolidine-1-carbonyl)oxy)methyl)-1-methyl-1H-1,2,3-triazol-4-yl)-2-methylpyridin-3-yl)oxy)cyclohexane-1-carboxylic acid]",91 nM
14,"Cc1nc(-c2nnn(C)c2COC(=O)N2CCC(CC(C)C)C2)ccc1O[C@H]1CCC[C@H](C(=O)O)C1 (mixture of isomers) [Example 151, (1S,3S)-3-((6-(5-(((3-isobutylpyrrolidine-1-carbonyl)oxy)methyl)-1-methyl-1H-1,2,3-triazol-4-yl)-2-methylpyridin-3-yl)oxy)cyclohexane-1-carboxylic acid]",101 nM
15,"CCC1CCCN1C(=O)OCc1c(-c2ccc(O[C@H]3CCC[C@H](C(=O)O)C3)c(C)n2)nnn1C (mixture of isomers) [Example 152, (1S,3S)-3-((6-(5-(((2-ethylpyrrolidine-1-carbonyl)oxy)methyl)-1-methyl-1H-1,2,3-triazol-4-yl)-2-methylpyridin-3-yl)oxy)cyclohexane-1-carboxylic acid]",157 nM
16,"Cc1nc(-c2nnn(C)c2COC(=O)N2CCCC2CC(C)C)ccc1O[C@H]1CCC[C@H](C(=O)O)C1 (mixture of isomers) [Example 153, (1S,3S)-3-((6-(5-(((2-isobutylpyrrolidine-1-carbonyl)oxy)methyl)-1-methyl-1H-1,2,3-triazol-4-yl)-2-methylpyridin-3-yl)oxy)cyclohexane-1-carboxylic acid]",163 nM
17,"Cc1nc(-c2nnn(C)c2COC(=O)N2CCCC2C(F)(F)F)ccc1O[C@H]1CCC[C@H](C(=O)O)C1 (mixture of isomers) [Example 154, (1S,3S)-3-((2-methyl-6-(1-methyl-5-(((2-(trifluoromethyl)pyrrolidine-1-carbonyl)oxy)methyl)-1H-1,2,3-triazol-4-yl)pyridin-3-yl)oxy)cyclohexane-1-carboxylic acid]",321 nM
